Data on three molecules can be found in ChEMBL document CHEMBL5291721, “A preclinical secondary pharmacology resource illuminates target-adverse drug reaction associations of marketed drugs” (Nat Commun, 2023).

In assay [1] the target is T1, Peroxisome proliferator-activated receptor alpha (Homo sapiens, UniProt Q07869).
T1 sequence (Q07869 whole entry): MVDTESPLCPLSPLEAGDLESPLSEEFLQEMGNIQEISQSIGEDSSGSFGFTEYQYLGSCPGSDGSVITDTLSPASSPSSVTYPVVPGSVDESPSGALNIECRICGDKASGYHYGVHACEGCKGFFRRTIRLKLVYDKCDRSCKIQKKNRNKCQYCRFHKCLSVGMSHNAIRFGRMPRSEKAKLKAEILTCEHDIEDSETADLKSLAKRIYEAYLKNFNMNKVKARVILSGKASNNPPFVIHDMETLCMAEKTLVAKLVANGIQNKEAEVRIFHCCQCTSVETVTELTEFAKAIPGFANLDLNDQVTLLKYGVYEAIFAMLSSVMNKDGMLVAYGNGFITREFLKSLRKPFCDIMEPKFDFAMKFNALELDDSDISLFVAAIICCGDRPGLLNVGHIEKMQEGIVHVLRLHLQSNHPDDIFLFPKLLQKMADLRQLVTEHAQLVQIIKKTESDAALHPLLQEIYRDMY
Type of assay: functional.

The target in another assay is T2, Estrogen receptor (Homo sapiens, UniProt P03372).
T2 sequence (P03372 whole entry): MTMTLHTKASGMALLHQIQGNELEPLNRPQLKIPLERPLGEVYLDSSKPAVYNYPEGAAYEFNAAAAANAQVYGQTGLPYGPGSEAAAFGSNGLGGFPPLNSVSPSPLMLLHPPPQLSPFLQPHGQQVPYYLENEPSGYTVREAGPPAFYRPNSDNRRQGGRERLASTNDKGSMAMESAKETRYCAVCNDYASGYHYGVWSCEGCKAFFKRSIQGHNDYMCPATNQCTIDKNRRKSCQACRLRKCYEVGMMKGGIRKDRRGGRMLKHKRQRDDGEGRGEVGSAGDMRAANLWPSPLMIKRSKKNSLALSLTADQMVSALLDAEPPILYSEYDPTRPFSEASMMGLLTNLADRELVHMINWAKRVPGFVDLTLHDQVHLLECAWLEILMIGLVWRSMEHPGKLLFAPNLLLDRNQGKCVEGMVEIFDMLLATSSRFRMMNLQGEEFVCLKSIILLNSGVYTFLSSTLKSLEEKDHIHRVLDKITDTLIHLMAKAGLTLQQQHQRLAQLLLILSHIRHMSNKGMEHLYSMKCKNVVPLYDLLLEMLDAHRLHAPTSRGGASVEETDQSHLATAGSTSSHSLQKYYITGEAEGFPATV
Format: functional.

In assay [2] the target is cGMP-inhibited 3',5'-cyclic phosphodiesterase 3A (Homo sapiens, UniProt Q14432). Format: functional.
Chain of cGMP-inhibited 3',5'-cyclic phosphodiesterase 3A (Q14432 whole entry): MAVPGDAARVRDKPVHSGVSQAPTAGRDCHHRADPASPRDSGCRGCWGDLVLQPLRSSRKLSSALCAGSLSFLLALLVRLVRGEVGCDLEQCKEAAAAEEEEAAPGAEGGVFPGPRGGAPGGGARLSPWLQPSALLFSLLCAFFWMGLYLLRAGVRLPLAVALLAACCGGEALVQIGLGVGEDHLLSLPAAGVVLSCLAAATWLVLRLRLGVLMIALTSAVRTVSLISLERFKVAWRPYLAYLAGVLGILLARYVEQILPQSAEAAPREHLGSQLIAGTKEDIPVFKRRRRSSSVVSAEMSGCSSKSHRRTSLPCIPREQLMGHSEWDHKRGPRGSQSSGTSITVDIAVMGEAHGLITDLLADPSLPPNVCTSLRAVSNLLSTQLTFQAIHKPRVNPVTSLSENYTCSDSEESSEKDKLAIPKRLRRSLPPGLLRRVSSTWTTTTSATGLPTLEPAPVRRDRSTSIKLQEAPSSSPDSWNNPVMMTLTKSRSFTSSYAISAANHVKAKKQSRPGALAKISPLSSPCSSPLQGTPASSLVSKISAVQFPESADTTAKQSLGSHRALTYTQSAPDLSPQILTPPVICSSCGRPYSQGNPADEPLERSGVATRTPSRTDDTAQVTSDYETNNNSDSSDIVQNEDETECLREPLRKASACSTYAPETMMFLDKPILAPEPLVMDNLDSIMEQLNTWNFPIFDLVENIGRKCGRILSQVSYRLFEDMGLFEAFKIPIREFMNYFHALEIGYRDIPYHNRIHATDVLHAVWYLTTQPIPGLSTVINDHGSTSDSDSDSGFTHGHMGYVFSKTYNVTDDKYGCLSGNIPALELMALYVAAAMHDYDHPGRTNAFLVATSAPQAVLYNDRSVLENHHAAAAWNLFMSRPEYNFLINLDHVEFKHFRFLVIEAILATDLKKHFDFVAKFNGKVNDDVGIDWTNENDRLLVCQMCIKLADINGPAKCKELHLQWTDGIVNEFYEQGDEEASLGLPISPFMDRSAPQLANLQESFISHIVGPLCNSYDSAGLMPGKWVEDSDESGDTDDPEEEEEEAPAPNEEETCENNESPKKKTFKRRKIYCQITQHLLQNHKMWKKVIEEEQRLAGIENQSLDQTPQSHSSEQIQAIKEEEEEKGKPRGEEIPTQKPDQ
Assay [3] has as its target T3, Alpha-1A adrenergic receptor (Homo sapiens, UniProt P35348).
T3 sequence (P35348 whole entry): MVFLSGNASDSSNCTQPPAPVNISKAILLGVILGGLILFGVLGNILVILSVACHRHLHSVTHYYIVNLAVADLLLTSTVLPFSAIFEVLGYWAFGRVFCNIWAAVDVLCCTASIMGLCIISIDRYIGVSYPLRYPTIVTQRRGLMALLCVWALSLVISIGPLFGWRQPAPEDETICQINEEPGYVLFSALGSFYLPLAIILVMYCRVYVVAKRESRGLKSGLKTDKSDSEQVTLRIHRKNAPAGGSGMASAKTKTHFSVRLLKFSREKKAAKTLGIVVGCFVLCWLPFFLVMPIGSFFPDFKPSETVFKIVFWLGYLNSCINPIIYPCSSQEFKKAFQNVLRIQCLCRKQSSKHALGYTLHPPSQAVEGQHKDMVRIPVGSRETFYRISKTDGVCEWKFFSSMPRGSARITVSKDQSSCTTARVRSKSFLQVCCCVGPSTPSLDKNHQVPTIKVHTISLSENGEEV
Format: functional, cell-based.

Another assay concerns the target T4, Thromboxane A2 receptor (Homo sapiens, UniProt P21731).
T4 sequence (P21731 whole entry): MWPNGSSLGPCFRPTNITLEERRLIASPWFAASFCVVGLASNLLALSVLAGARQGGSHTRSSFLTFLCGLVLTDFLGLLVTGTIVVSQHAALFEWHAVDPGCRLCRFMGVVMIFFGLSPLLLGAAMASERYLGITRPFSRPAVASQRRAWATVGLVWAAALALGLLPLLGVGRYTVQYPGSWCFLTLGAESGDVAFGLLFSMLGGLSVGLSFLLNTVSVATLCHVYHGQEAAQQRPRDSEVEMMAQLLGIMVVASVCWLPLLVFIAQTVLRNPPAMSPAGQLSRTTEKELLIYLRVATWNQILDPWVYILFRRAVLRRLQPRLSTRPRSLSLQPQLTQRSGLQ
Format: functional, cell-based.

Assay [4] deals with T5, 5-hydroxytryptamine receptor 1A (Homo sapiens, UniProt P08908).
T5 sequence (P08908 whole entry): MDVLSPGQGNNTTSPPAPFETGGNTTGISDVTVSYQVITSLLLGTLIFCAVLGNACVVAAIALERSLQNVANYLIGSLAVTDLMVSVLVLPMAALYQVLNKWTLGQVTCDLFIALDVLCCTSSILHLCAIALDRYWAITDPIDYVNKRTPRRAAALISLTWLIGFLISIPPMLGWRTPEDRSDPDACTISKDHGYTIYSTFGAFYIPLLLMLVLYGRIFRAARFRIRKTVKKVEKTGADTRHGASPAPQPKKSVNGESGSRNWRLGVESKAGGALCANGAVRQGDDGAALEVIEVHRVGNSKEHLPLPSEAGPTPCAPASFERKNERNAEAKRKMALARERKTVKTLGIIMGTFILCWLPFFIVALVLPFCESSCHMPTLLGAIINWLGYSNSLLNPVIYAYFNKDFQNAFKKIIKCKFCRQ

Assay [5] concerns the target 5-hydroxytryptamine receptor 2B (Homo sapiens, UniProt P41595). Format: functional, cell-based.
Assay [6] deals with T6, Alpha-2A adrenergic receptor (Homo sapiens, UniProt P08913).
T6 sequence (P08913 whole entry): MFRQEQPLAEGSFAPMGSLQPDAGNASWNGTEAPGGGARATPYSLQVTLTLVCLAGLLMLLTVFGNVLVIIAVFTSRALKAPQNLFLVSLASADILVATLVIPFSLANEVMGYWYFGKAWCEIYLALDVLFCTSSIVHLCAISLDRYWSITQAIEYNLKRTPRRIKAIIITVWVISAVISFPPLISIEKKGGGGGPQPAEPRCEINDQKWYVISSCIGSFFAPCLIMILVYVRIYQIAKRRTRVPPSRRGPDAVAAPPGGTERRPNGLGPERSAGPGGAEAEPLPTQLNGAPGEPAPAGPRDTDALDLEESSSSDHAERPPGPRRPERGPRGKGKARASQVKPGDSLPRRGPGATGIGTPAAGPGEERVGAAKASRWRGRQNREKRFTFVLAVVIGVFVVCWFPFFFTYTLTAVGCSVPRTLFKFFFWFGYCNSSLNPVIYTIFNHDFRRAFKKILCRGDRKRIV

A word on the AC50: it is the midpoint of the concentration-response curve, whichever way the signal moves. Higher therefore signals weaker potency.
Also: assay procedure not described here.

Chain of 5-hydroxytryptamine receptor 2B (P41595 whole entry): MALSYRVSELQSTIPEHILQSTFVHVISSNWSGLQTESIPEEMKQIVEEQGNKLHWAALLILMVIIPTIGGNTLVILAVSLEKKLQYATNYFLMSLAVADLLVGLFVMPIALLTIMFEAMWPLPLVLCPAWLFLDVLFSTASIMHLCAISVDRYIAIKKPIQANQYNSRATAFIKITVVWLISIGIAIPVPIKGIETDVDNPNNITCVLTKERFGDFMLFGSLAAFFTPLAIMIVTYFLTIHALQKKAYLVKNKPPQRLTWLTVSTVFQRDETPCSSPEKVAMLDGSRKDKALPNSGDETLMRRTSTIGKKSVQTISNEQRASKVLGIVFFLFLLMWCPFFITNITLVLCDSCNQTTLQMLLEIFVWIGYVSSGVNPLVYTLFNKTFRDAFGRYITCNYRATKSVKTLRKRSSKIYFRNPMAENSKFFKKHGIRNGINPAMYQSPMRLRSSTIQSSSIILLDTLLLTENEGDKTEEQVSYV

Consider `CCOC(=O)C(C)(C)Oc1ccc(Cl)cc1` [CLOFIBRATE], for which, in assay [1], the AC50 is greater than 30 µM.
`CCOC(=O)[C@@H](N)Cc1ccc(-c2cc(O[C@H](c3ccc(Cl)cc3-n3ccc(C)n3)C(F)(F)F)nc(N)n2)cc1` [TELOTRISTAT ETHYL] came in with a half-maximal activity concentration (AC50) on Estrogen receptor greater than 30 µM.
In the case of `CCN(CC)CCCC(C)Nc1c2ccc(Cl)cc2nc2ccc(OC)cc12` (stereo not drawn) [QUINACRINE], the AC50 is greater than 30 µM in assay [2]; greater than 1 µM in assay [3]; greater than 1 µM at Thromboxane A2 receptor; 2.26 µM in assay [4]; greater than 30 µM in assay [5]; 11.9 µM in assay [6].
